{
  "source": "patent US20250161399A1",
  "about": "“TARGETING SLC46A2-MEDIATED MUROPEPTIDE TRANSPORT TO TREAT PSORIASIS” (University of Massachusetts, priority 2021, published 2025)",
  "key": {"[1]": {"test_system": "mouse skin (NOD1/NOD2 response)", "experiment": "neutrophil recruitment to pinnae after intradermal injection", "assay_type": "in vivo", "conditions": "for neutrophil recruitment response in Slc46a2-deficient mice compared to WT: Tri-DAP 25 μM, C12-iE-DAP 20 μM", "description": "[…] After 3 h, both ears were individually harvested, and stored in ice cold PBS on ice until further processing for flow cytometry staining.\nPinnae were cut into small pieces and incubated for 30 min at 37° C. in a solution of 1 mg/ml collagenase (Sigma) in DMEM media containing 10% FBS. Ice-cold FACS buffer (2% FBS in PBS) was added to skin samples to stop the reaction. Then samples were placed on 70 μm cell strainers and ground using a cell strainer pestle to create a single cell suspension. Cells were spun at 180 g for 5 min at 4° C. and resuspended in FACS buffer.\n(§1) 1×10^6 cells were stained with F4/80-PE/Cy7 (1:200), CD45-alexaflour700 (1:200) and Gr1-PE (1:200) for 30 min on ice in the dark. Samples were washed three times with FACS buffer and analyzed with a Cytek Aurora cytometer. Results were analyzed with FlowJo software (Tree Star, USA)."}, "[2]": {"test_system": "mouse peritoneum (NOD1/NOD2 response)", "experiment": "neutrophil recruitment to the peritoneum after intraperitoneal injection", "assay_type": "in vivo", "conditions": "3 h, iE-DAP 30 μM, MDP 10 μM", "description": "For peritoneal cell extraction, animals were euthanized and cells from peritoneal cavity were isolated by peritoneal lavage (58). Harvested cell suspensions were centrifuged at 300 g for 5 min at 4° C. and resuspended in FACS buffer.\nas §1"}, "[3]": {"test_system": "psoriasis-like inflammation on mouse pinnae", "experiment": "IMQ model of psoriasis-like dermatitis (ear thickness, H&E histology)", "assay_type": "in vivo", "conditions": "7-day course of topical IMQ", "description": "Pinnae were harvested 3 h after DAP-muropeptide administration or 7 d after topical application of IMQ and fixed in PBS containing 10% formalin. Paraffin-embedded sections were cut at […], stained with H&E, and imaged by light microscopy.\nThe induction of psoriasis-like inflammation on mouse pinnae was done as previously described (60). In brief, mice were treated daily for up to 6 d with 5 mg 5% IMQ cream topically applied on one pinna, while the other pinnae were treated with a similar amount of Vaseline, as vehicle control. Ear thickness was measured daily using a digital caliper. The change in ear thickness over time was reported as the difference related to the first day of topical application. For the bacterial assisted psoriasis model, 5 mg 5% IMQ cream was topically applied on one pinna, while the contralateral pinna was treated with a similar amount of Vaseline for 3 days, and then 10^7 CFU of C. accolens, in 50% glycerol, was topically applied daily to both pinnae. Ear thickness was measured daily using a digital caliper. C. accolens, originally from ATCC, was provided by J. Kang and grown as described (61)."}, "[4]": {"test_system": "primary mouse keratinocytes", "experiment": "keratinocyte cell permeabilization assay (Sytox dye uptake, live cell imaging)", "assay_type": "cell-based", "conditions": "WT keratinocytes, 30 μM iE-DAP, 24 h; MTX increasing concentration, zVAD-fmk 10 μM, DMF 50 μM", "description": "Adult (6-8 weeks) mouse keratinocytes were isolated from male or female animals using protocols described previously (57). In brief, tail skin was incubated in 1 mg/ml Dispase II (Roche) overnight at 4° C. The epidermis was physically removed from the dermis with tweezers following Dispase II treatment, subsequently digested with TrypLE (Thermo) for 20 min at room temperature, and keratinocytes were detached by vigorously shaking in EpiLife culture medium and filtered with a 70 μm strainer (Fisher scientific). Isolated cells were seeded at a density of 10^5 cells/cm^2 cultured with EpiLife (Gibco) in 12-well plates precoated with coating matrix (Gibco) and used between 3 and 5 days after isolation.\nFor cell permeabilization assays, 1×10^5 keratinocytes/well were seeded in a 96-well plate (Denville Scientific Inc.). After reaching 80% confluency, 30 μM iE-DAP was added to culture media with 1 nM Sytox red dye (Thermo) and 0.2 nM hoechst stain (Thermo). Plates were then cultured in a Cytation5 (BioTek) live imaging device and each well was imaged every 30 min for 24 hours. For analysis, Gen5 software were used to count the total number of Hoechst-stained nuclei and the total number of permeabilized cells were quantified as the number of Sytox positive nuclei. The Percentage of Sytox^+ cells was then calculated and plotted."}, "[5]": {"test_system": "HSE dermal fibroblasts (CXCL8)", "experiment": "CXCL8 induction in Human Skin Equivalents (HSE) skin organoids", "assay_type": "cell-based", "conditions": "concomitant treatment with iE-DAP"}, "[6]": {"test_system": "primary dermal fibroblasts", "experiment": "CXCL1 (KC) ELISA from primary dermal fibroblasts", "assay_type": "cell-based, mouse", "conditions": "iE-DAP 30 μM or IL-1α 10 ng/ml, 24 hrs", "description": "Mouse dermal fibroblasts were isolated as described herein. In brief, mouse pinnae were incubated on a table shaker (200 rpm) in a collagenase D-pronase solution [2.5 mg/ml collagenase-D (Sigma), 20 mg/ml pronase (Sigma) diluted in 1M Tris, pH 8.0 and containing 1 μM EDTA (Sigma)] for 90 min at 37° C. Fibroblasts were then isolated by pressing digested skin through a 70 μm cell strainer, and cells were collected and cultured in RPMI 1640 medium with 10% FBS, 50 μM 2-mercaptoethanol, 100 μM asparagine, 2 mM glutamine, 1% penicillin-streptomycin for 2-4 passages before stimulating with immune elicitors, and/or harvesting media or cells.\nFor cytokine ELISAs from dermal fibroblast, cells were challenged with IL-1α (10 ng/ml) or 30 μM iE-DAP for 24 h, and media was collected and processed for ELISA as described above."}, "[7]": {"conditions": "intradermal, 3 h, TCT 8 μM, iE-DAP 30 μM, MDP 10 μM"}},
  "note": "Entries after “also recorded” stand apart in the source; their conditions may differ. Peptide text beside a SMILES is read from it. * marks the point of attachment. Cbz = O=C(OCc1ccccc1)*; CH2F = FC*",
  "data": [
    {"molecule": "CC(=O)N[C@H]1C(O)O[C@H](CO)[C@@H](O)[C@@H]1O[C@H](C)C(=O)N[C@@H](C)C(=O)N[C@H](CCC(=O)O)C(N)=O", "note": "(mixture of isomers) [MDP, muramyl dipeptide]", "values": [
      {"measurement": "neutrophil recruitment response in Slc46a3−/− mice", "setting": "[1]; intradermal, 3 h, MDP 10 μM", "value": "significantly defective"},
      {"measurement": "neutrophil recruitment response in Slc46a2-deficient mice compared to WT", "setting": "[1]; [7]", "value": "responded normally"},
      {"measurement": "neutrophil recruitment response in Slc46a2−/− mice", "setting": "[2]", "value": "responded like wild-type"},
      {"measurement": "neutrophil recruitment response in Slc46a3−/− mice", "setting": "[2]", "value": "failing to respond"}
    ]},
    {"molecule": "CCCCCCCCCCCC(=O)N[C@H](CCC(=O)NC(CCCC(N)C(=O)O)C(=O)O)C(=O)O", "note": "(stereo partly drawn) [C12-iE-DAP]", "values": [
      {"measurement": "neutrophil recruitment response in Slc46a2-deficient mice compared to WT", "setting": "[1]; [7]", "value": "not significantly changed"}
    ]},
    {"molecule": "CC(C)Cn1cnc2c(N)nc3ccccc3c21", "note": "[IMQ, imiquimod]", "values": [
      {"measurement": "inflammation in Slc46a2- and Nod1-deficient mice", "setting": "[3]", "value": "markedly resistant"},
      {"measurement": "inflammation in WT mice (ear thickness, H&E histology)", "setting": "[3]; WT mice", "value": "expected psoriatic-like inflammation"}
    ]},
    {"molecule": "C[C@H](N)C(=O)N[C@H](CCC(=O)NC(CCCC(N)C(=O)O)C(=O)O)C(=O)O", "note": "(stereo partly drawn) [Tri-DAP]", "values": [
      {"measurement": "neutrophil recruitment response in Slc46a2-deficient mice compared to WT", "setting": "[1]; [7]", "value": "significantly reduced"}
    ]},
    {"molecule": "COC(=O)C[C@H](NC(=O)[C@H](C)NC(=O)[C@@H](NC(=O)OCc1ccccc1)C(C)C)C(=O)CF", "note": "[zVAD-FMK] (Cbz-Val-Ala-Asp(OMe)-CH2F)", "values": [
      {"measurement": "inhibition of DAP-muropeptide triggered keratinocyte permeabilization (Sytox uptake)", "setting": "[4]", "value": "prevented"}
    ]},
    {"molecule": "IL-1Ra: recombinant IL-1R antagonist", "values": [
      {"measurement": "effect on iE-DAP induced CXCL8 in HSE dermis", "setting": "[5]", "value": "prevented"},
      {"measurement": "effect on iE-DAP induced CXCL8 in HSE dermis", "setting": "[5]; listed as IL-IRA", "value": "blocked"}
    ]},
    {"molecule": "tracheal cytotoxin [TCT]", "values": [
      {"measurement": "neutrophil / leukocyte recruitment to the skin in WT mice", "setting": "[1]; intradermal 10 μl, TCT 8 μM, LPS 10 μg/ml, iE-DAP 30 μM, 1 to 24 h", "value": "rapid and robust; also recorded: robust and rapid"},
      {"measurement": "time of peak leukocyte recruitment", "setting": "[1]; intradermal TCT, monitored between 1 and 24 h", "value": 3, "unit": "h"},
      {"measurement": "neutrophil recruitment response in Slc46a2-deficient mice compared to WT", "setting": "[1]; [7]", "value": "significantly reduced"}
    ]},
    {"molecule": "IL-1α: cytokine used to challenge dermal fibroblasts (10 ng/ml) (protein, UniProt P01583 113-271, looked up) Interleukin-1 alpha: SAPFSFLSNVKYNFMRIIKYEFILNDALNQSIIRANDQYLTAAALHNLDEAVKFDMGAYKSSKDDAKITVILRISKTQLYVTAQDEDQPVLLKEMPEIPKTITGSETNLLFFWETHGTKNYFTSVAHPNLFIATKQDYWVCLAGGPPSITDFQILENQA", "values": [
      {"measurement": "CXCL1 (KC) response of primary dermal fibroblasts", "setting": "[6]", "value": "induced"}
    ]}
  ]
}
